Results on six compounds are retold here after US20070276045A1, “Anti-Bacterial Compounds” (priority 2004, published 2007).

Values after ≈ are worked out from the molar mass of the structure shown. Read-outs that look alike come from different tables or passages of the source.

Experiment [1] relates to S. epidermidis Ax 25. The experiment is described as follows: Bactericidal activity (MBC), 60 min contact. It is filed as cell-based. The conditions noted are these: Staphylococcus epidermidis, AX25, 1 h, inoculum completely killed after 60 min incubation, read-out: MBC (minimal bactericidal concentration). From the text:
(§1) The different axilla bacteria are isolated from the human axilla according to techniques known in the art, in particular according to standard microbiological practice. They are taxonomically identified by cell morphology, gram-reaction and biochemical tests included in the Api coryne test kit (BioMerieux, France). Strain Staphylococcus epidermidis Ax25 is identified by fatty acid methyl ester analysis (FAME; German type strain collection DSMZ, Germany) . Escherichia coli DSM 682, Staphylococcus aureus DSM 799, and Corynebacterium xerosis DSM 20170 are obtained from the German-type strain collection. The strains are maintained on Tryptic soy broth plates, this standard medium being supplemented with 5 g per Litre of Polyoxyethylene Sorbitan Monooleate (TweenTM 80). Plates are incubated at 36° C. for a period of 48 hours. The bacteria are then swabbed from the plates and suspended in 4 ml of Muller-Hinton broth supplemented with 100 mg of TweenTM 80 per Litre (MH-Tween) and incubated again at 36° C. for 16 hours. Following incubation the bacterial suspensions are diluted in MH-Tween to obtain a final cell density of 10^7 colony forming units per ml. These diluted suspensions of the different test organisms are distributed to different columns of a microtiter plate, 100 μl per well. The test compounds are dissolved in dimethylsulfoxide (DMSO) at various test concentrations and 2.5 μl of these different DMSO solutions are added to the different wells of the test plates. The plates are covered with plastic films and incubated for 24 h at 36° C. with shaking at 250 rpm. The turbidity developing in the microtiter […] examined after 24 h to determine microbial growth. […] The bacteria are grown, harvested and diluted under the same conditions as described in the example above and added to microtiter plates (100 μl per well), each well containing 2.5 μl of the different DMSO solutions as described above. After 60 min incubation, 0.5 μl of the bacterial culture from each well (corresponding to 5×10^3 cfu in the control treatment) is transferred to a fresh microtiter plate which contained 100 μl per well of fresh medium. The plates are covered with plastic films and incubated for 24 h at 36° C. with shaking at 250 rpm. The turbidity developing in the microtiter plates is then examined after 24 h to determine microbial growth. The minimal concentration of test compounds which completely killed the bacterial inoculum is determined as the minimal bactericidal concentration (MBC).

Experiment [2] relates to C. xerosis DSM 20170. Briefly: Bactericidal activity (MBC), 60 min contact. It is filed as cell-based. The conditions noted are these: Corynebacterium xerosis, DSM20170, 1 h, inoculum completely killed after 60 min incubation, read-out: MBC (minimal bactericidal concentration).
Description: as §1

In the next experiment the test system is Escherichia coli DSM 682. Briefly: Bacteriostatic activity (MIC), microtiter broth turbidity. Conditions: read-out: MIC (minimal inhibitory concentration). It is filed as cell-based. From the text: (§2) The bacteriostatic effects of the compounds of the present invention are compared with those of known anti-bacterial agents against human skin bacteria. Typical bacteria (Corynebacterium and Staphylococcus strains) isolated from the human axilla and commercially available strains are used.
(§3) The different axilla bacteria are isolated from the human axilla according to techniques known in the art, in particular according to standard microbiological practice. They are taxonomically identified by cell morphology, gram-reaction and biochemical tests included in the Api coryne test kit (BioMerieux, France). Strain Staphylococcus epidermidis Ax25 is identified by fatty acid methyl ester analysis (FAME; German type strain collection DSMZ, Germany) . […] The strains are maintained on Tryptic soy broth plates, this standard medium being supplemented with 5 g per Litre of Polyoxyethylene Sorbitan Monooleate (Tween™ 80). Plates are incubated at 36° C. for a period of 48 hours. The bacteria are then swabbed from the plates and suspended in 4 ml of Muller-Hinton broth supplemented with 100 mg of Tween™ 80 per Litre (MH-Tween) and incubated again at 36° C. for 16 hours. Following incubation the bacterial suspensions are diluted in MH-Tween to obtain a final cell density of 10^7 colony forming units per ml. These diluted suspensions of the different test organisms are distributed to different columns of a microtiter plate, 100 μl per well. The test compounds are dissolved in dimethylsulfoxide (DMSO) at various test concentrations and 2.5 μl of these different DMSO solutions are added to the different wells of the test plates. The plates are covered with plastic films and incubated for 24 h at 36° C. with shaking at 250 rpm. The turbidity developing in the microtiter platesi then examined after 24 h to determine microbial growth.

Experiment [3] relates to Staphylococcus aureus DSM 799. Described as above. It counts as cell-based. The conditions noted are these: read-out: MIC (minimal inhibitory concentration).
Description: as §2, §3

The subject of experiment [4] is S. epidermidis Ax 25. Described as above. It is filed as cell-based. The conditions noted are these: Staphylococcus epidermidis, read-out: MIC (minimal inhibitory concentration).
Description: as §2, §3

Experiment [5] deals with C. xerosis DSM 20170. The experiment is described as above. It counts as cell-based. Conditions: Corynebacterium xerosis, read-out: MIC (minimal inhibitory concentration).
Description: as §2, §3

For experiment [6], the system named is Corynebacterium Ax 15. The experiment is described as above. It is filed as cell-based, Corynebacterium jeikeium. The conditions noted are these: read-out: MIC (minimal inhibitory concentration).
Description: as §2, §3

For experiment [7], the system named is Corynebacterium Ax 7. The experiment is described as above. Conditions: read-out: MIC (minimal inhibitory concentration). It counts as cell-based, Corynebacterium group G.
Description: as §2, §3

Experiment [8] has as its system Corynebacterium Ax 7. The experiment is described as follows: Bactericidal activity (MBC), 60 min contact. It is filed as cell-based, Corynebacterium group G. Conditions: AX7, 1 h, inoculum completely killed after 60 min incubation, read-out: MBC (minimal bactericidal concentration).
Description: as §1

Experiment [9] relates to Corynebacterium Ax 15. The experiment is described as follows: Bactericidal activity (MBC), 60 min contact. It is filed as cell-based, Corynebacterium jeikeium. The conditions noted are these: AX15, 1 h, inoculum completely killed after 60 min incubation, read-out: MBC (minimal bactericidal concentration).
Description: as §1

[10] abbreviates: DSM682, Escherichia coli DSM 682, growth inhibited by at least 80%, 24 h at 36° C.
[11] abbreviates: DSM799, Staphylococcus aureus DSM 799, growth inhibited by at least 80%, 24 h at 36° C.
[12] abbreviates: AX25, S. epidermidis Ax 25, growth inhibited by at least 80%, 24 h at 36° C.
Where [13] appears, read: DSM20170, C. xerosis DSM 20170, growth inhibited by at least 80%, 24 h at 36° C.
The mark [14] stands for this setting: AX15, Corynebacterium Ax 15, growth inhibited by at least 80%, 24 h at 36° C.
Where [15] appears, read: AX7, Corynebacterium Ax 7, growth inhibited by at least 80%, 24 h at 36° C.

With `CCCCCCCCC(CCCCCC)C(=O)NCC(=O)O` (centres unmarked) [compound 11, (2-Hexyl-decanoylamino)-acetic acid], the MBC was no less than 5000 µg/mL in the experiment with S. epidermidis Ax 25 [1], 313 µg/mL (≈ 998 µM) in the experiment with C. xerosis DSM 20170 [2], 156 µg/mL (≈ 498 µM) with Corynebacterium Ax 7 [8] and 313 µg/mL (≈ 998 µM) in the experiment with Corynebacterium Ax 15 [9]. The MIC is no less than 5000 µg/mL in the experiment with Escherichia coli DSM 682 (setting [10]); 55 µg/mL (≈ 175 µM) in experiment [3] (setting [11]); 39 µg/mL (≈ 124 µM) with S. epidermidis Ax 25 [4] (setting [12]); no more than 19 µg/mL in the experiment with C. xerosis DSM 20170 [5] (setting [13]); 78 µg/mL (≈ 249 µM) in the experiment on Corynebacterium Ax 15 [6] (setting [14]); no more than 19 µg/mL in the experiment on Corynebacterium Ax 7 [7] (setting [15]).

Take `CCCCCCCCC(CCCCCC)C(=O)OCC(=O)O` (centres unmarked) [compound 9, 2-Hexyl-decanoic acid carboxymethyl ester]: the MBC in the experiment on S. epidermidis Ax 25 [1] stood at 40 µg/mL (≈ 127 µM); with C. xerosis DSM 20170 [2], 80 µg/mL (≈ 254 µM); in the experiment with Corynebacterium Ax 7 [8], 40 µg/mL (≈ 127 µM); in the experiment on Corynebacterium Ax 15 [9], 80 µg/mL (≈ 254 µM). Also, the MIC was greater than 2500 µg/mL with Escherichia coli DSM 682 (setting [10]); 5 µg/mL (≈ 15.9 µM) in [3] (setting [11]); 10 µg/mL (≈ 31.8 µM) with S. epidermidis Ax 25 [4] (setting [12]); 7 µg/mL (≈ 22.3 µM) in the experiment on C. xerosis DSM 20170 [5] (setting [13]); 5 µg/mL (≈ 15.9 µM) in the experiment with Corynebacterium Ax 15 [6] (setting [14]); 5 µg/mL (≈ 15.9 µM) with Corynebacterium Ax 7 [7] (setting [15]).

In the case of `CCCCC(CC)C(=O)OCC(=O)O` (centres unmarked) [compound 7, 2-Ethyl-hexanoic acid carboxymethyl ester], the MBC in the experiment on S. epidermidis Ax 25 [1], in the experiment on C. xerosis DSM 20170 [2], with Corynebacterium Ax 7 [8] and in the experiment with Corynebacterium Ax 15 [9] was greater than 2500 µg/mL in each case. The MIC in the experiment with Escherichia coli DSM 682 (setting [10]) turned out to be 2500 µg/mL (≈ 12400 µM); in experiment [3] (setting [11]), 1250 µg/mL (≈ 6180 µM); in the experiment on S. epidermidis Ax 25 [4] (setting [12]), 1250 µg/mL (≈ 6180 µM); in the experiment on C. xerosis DSM 20170 [5] (setting [13]), 1250 µg/mL (≈ 6180 µM); in the experiment on Corynebacterium Ax 15 [6] (setting [14]) it was 1250 µg/mL (≈ 6180 µM); with Corynebacterium Ax 7 [7] (setting [15]) it was 1250 µg/mL (≈ 6180 µM).

Consider `CCCCC(CC)COCC(=O)O` (centres unmarked) [compound 4, (2-Ethyl-hexyloxy)-acetic acid], for which the MBC is no less than 5000 µg/mL with S. epidermidis Ax 25 [1], no less than 5000 µg/mL in the experiment on C. xerosis DSM 20170 [2], 2500 µg/mL (≈ 13300 µM) with Corynebacterium Ax 7 [8] and no less than 5000 µg/mL with Corynebacterium Ax 15 [9]. The MIC in the experiment on Escherichia coli DSM 682 (setting [10]) was 2500 µg/mL (≈ 13300 µM); in experiment [3] (setting [11]) it was 625 µg/mL (≈ 3320 µM); in the experiment with S. epidermidis Ax 25 [4] (setting [12]), 625 µg/mL (≈ 3320 µM); in the experiment on C. xerosis DSM 20170 [5] (setting [13]) it was 884 µg/mL (≈ 4700 µM); in the experiment on Corynebacterium Ax 15 [6] (setting [14]) it was 1250 µg/mL (≈ 6640 µM); with Corynebacterium Ax 7 [7] (setting [15]), 1250 µg/mL (≈ 6640 µM).

In the case of `CCCCCCCCC(CCCCCC)COCC(=O)O` (centres unmarked) [compound 6, (2-Hexyl-decyloxy)-acetic acid], the MBC turned out to be 20 µg/mL (≈ 66.6 µM) with S. epidermidis Ax 25 [1], 40 µg/mL (≈ 133 µM) in the experiment with C. xerosis DSM 20170 [2], 20 µg/mL (≈ 66.6 µM) in the experiment with Corynebacterium Ax 7 [8] and 40 µg/mL (≈ 133 µM) in the experiment with Corynebacterium Ax 15 [9]. Moreover, the MIC is greater than 2500 µg/mL with Escherichia coli DSM 682 (setting [10]); 5 µg/mL (≈ 16.6 µM) in experiment [3] (setting [11]); 5 µg/mL (≈ 16.6 µM) in the experiment on S. epidermidis Ax 25 [4] (setting [12]); 4 µg/mL (≈ 13.3 µM) with C. xerosis DSM 20170 [5] (setting [13]); 5 µg/mL (≈ 16.6 µM) with Corynebacterium Ax 15 [6] (setting [14]); 5 µg/mL (≈ 16.6 µM) in the experiment with Corynebacterium Ax 7 [7] (setting [15]).

As for `CCCCCCCCCCCC(=O)OCC(O)CO` (centres unmarked) [C1, Dodecanoic acid 2,3-dihydroxy-propyl ester, reference compound], the MIC is greater than 5000 µg/mL with Escherichia coli DSM 682 (Escherichia coli, DSM682, 24 h); 80 µg/mL (≈ 292 µM) in experiment [3] (Staphylococcus aureus, DSM799, 24 h); less than 80 µg/mL in the experiment with S. epidermidis Ax 25 [4] (AX25, 24 h); 320 µg/mL (≈ 1170 µM) in the experiment with C. xerosis DSM 20170 [5] (DSM20170, 24 h); 1250 µg/mL (≈ 4560 µM) in the experiment with Corynebacterium Ax 15 [6] (Corynebacterium, AX15, 24 h); 160 µg/mL (≈ 583 µM) in the experiment on Corynebacterium Ax 7 [7] (Corynebacterium, AX7, 24 h).
